From paper PMC10572575, “Design, Synthesis, and Potent Anticancer Activity of Novel Indole-Based Bcl-2 Inhibitors” (International Journal of Molecular Sciences, 2023)

How the values were obtained:
MDA-MB-231 cells = assay: MTT cytotoxicity assay, MDA-MB-231; format: cell-based; conditions: Homo sapiens, 48 h, mean ± SEM of three
Method: (§1) MDA-231 triple-negative breast cancer cells, MCF-7 breast cancer cells, and A549 adenocarcinomic human alveolar basal epithelial cells were maintained in Roswell Park Memorial Institute media (RPMI 1640, Sigma-Aldrich, St. Louis, MO, USA) supplemented with 10% foetal bovine serum and 1% penicillin/streptomycin. HDF human dermal normal fibroblast cells were cultured in Dulbecco’s Modified Eagle Medium (DMEM, Sigma-Aldrich, Eppelheim, Germany). MCF-7 breast cancer cell line was obtained from Cell Lines Service (CLS; Eppelheim, Germany). MDA-MB-231 breast cancer cell line and A549 cancer cells were obtained from the European Collection of Authenticated Cell Cultures (ECACC; Gillingham UK). Cell lines were maintained at 37 °C in a humidified incubator with 5% CO2.
(§2) The antiproliferative activity of compounds U1–6 was assessed using the 3-[4,5-dimethylthiazol-2-yl]-2,5-diphenyl tetrazolium bromide (MTT) assay, as previously described. Cancer cell lines were seeded in 96-well flatbottom plates at a density of 10^4 cells/well for 24 h. The cells were subsequently treated with U1–6 compounds at a screening concentration of 50 µM and incubated at 37 °C for 48 h in a humidified incubator containing 5% CO2. […] DMSO was used as a negative vehicle control (1% concentration). The culture media were then removed and incubated for 2 h with fresh 200 µL culture media containing 5 mg/mL MTT. After removing the culture media and dissolving the produced formazan crystals in 100 µL DMSO, they were incubated for another 30 min at 37 °C. The produced colour was measured at 570 nm using a microplate reader (Thermo-Scientific, Vantaa, Finland). The GraphPad Prism version 9.1 software was used to generate plots of absorbance versus the compound’s concentration. Three independent repeat experiments were performed for each concentration to ensure reproducibility. IC50 values were obtained from nonlinear regression plots of absorbance versus the log concentration of the tested compounds using the GraphPad Prism software version 5.0 (San Diego, CA, USA).

MCF-7 cells [1] = assay: MTT cytotoxicity assay, MCF-7; format: cell-based; conditions: Homo sapiens, MCF7, 48 h, mean ± SEM of three
Method: as §1, §2

A549 cells = assay: MTT cytotoxicity assay, A549; format: cell-based; conditions: Homo sapiens, 48 h, mean ± SEM of three
Method: as §1, §2

[2] = system: HDF human dermal normal fibroblast cells; assay: Safety profile on HDF normal fibroblasts; format: cell-based; conditions: 50 µM, 24 hrs
Method: as §1
as §2, with “h.” for “h. The cells were subsequently treated with U1–6 compounds at a screening concentration of 50 µM and incubated at 37 °C for 48 h in a humidified incubator containing 5% CO2.”

Bcl-2 protein = target: T1, Bcl-2 protein (Homo sapiens, UniProt P10415); assay: Bim ELISA binding assay (Bcl-2–Bim binding); conditions: mean ± SEM of three, read-out: IC50 using ELISA against Bcl-2
T1 construct: purchased Thermo-Scientific BMS244-3
Method: A Bim-binding assay (Thermo-Scientific, Catalogue No # BMS244-3, Vienna, Austria) was performed according to previously published data. PBS solution containing 0.05% Tween-20 was used to wash a streptavidin-coated 96-well plate. For immobilisation, biotinylated Bim peptide (residues 81–106) was diluted in SuperBlock blocking solution and applied to each well. After incubation, the plate was washed with 0.5% BSA in PBS with Tween-20 solution. […] After another wash, each well received anti-His antibody with horseradish peroxidase enzyme. Following incubation and washing, O-phenylenediamine and hydrogen peroxide solution were added for colour production. A plate reader (Thermo-Scientific, Vantaa, Finland) was used to measure the optical density at 450 nm. The reduction in Bim affinity was measured using a nonlinear regression curve (GraphPad Prism. Version 5.0), which was also utilized to generate the IC50 value of Bcl-2 inhibition.

MCF-7 cells [3] = assay: Annexin-V-FITC apoptosis assay; format: cell-based, human; conditions: MCF-7, 24 h
Method: The Annexin-V-FITC apoptosis detection kit (Catalog # k101-25, Biovision, Mountain View, USA) was used for the apoptosis experiment according to previously published data. MCF-7 cells were treated with U2 compound for 24 h. The negative control was 0.1% DMSO. The cells were collected via centrifugation and resuspended in 500 µL of 1X Binding Buffer. Treated and control cells were stained with 5 µL Annexin V-FITC and 5 µL propidium iodide (PI […]) and then incubated at room temperature for 5 min in the dark. Fluorescence-activated cell sorting (FACS) was quantified via flow cytometry. Flow cytometry (excision at 488 nm; emission at 530 nm) was used to examine Annexin V-FITC binding and PI staining using the FITC signal detector and a phycoerythrin emission signal detector [71].

MCF-7 cells [4] = assay: Cell cycle assay (PI flow cytometry); format: cell-based, human; conditions: MCF-7, 24 h, at IC50 concentration
Method: DMSO vehicle was used as a negative control (1% concentration). The cells were collected, centrifuged, and fixed in 70% ethanol on ice for 20 min. The fixed cells were incubated for 1 h at room temperature with staining solution ([…] propidium iodide PI, 0.05% Triton X-100, 0.1 mg/mL RNaseA). A Gallios flow cytometer (Beckman Coulter, Brea, CA, USA) was used to measure the cell cycle proportion.

T1 sequence (P10415 whole entry): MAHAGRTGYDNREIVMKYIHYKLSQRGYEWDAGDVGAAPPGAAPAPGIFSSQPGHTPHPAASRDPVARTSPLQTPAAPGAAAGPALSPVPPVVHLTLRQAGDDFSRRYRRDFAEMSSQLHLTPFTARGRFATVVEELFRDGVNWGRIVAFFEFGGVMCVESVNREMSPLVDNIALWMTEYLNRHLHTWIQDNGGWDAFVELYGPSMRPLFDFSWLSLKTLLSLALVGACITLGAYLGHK

SMILES	melting point	IC50 (Bcl-2 protein)	IC50 (MDA-MB-231 cells)	IC50 (MCF-7 cells [1])	IC50 (A549 cells)	Inhibitory activity against HDF cells compared with the negative control [2]	Increase in early apoptosis compared with control untreated cells (MCF-7 cells [3])	Increase in late apoptosis compared with control untreated cells (MCF-7 cells [3])	Cell cycle effect (MCF-7 cells [4])
Cc1cc2c(C(C)C)c(O)c(O)c(C=O)c2c(O)c1-c1c(C)cc2c(C(C)C)c(O)c(O)c(C=O)c2c1O [Gossypol, reference compound]			5.5 ± 0.35 µM	4.43 ± 0.54 µM	3.45 ± 0.4 µM				
O=C(CSc1nnc(-c2c[nH]c3ccccc23)n1-c1cccc(Cl)c1)Nc1ccc(NC(=O)CN2CCOCC2)cc1 [Compound U4, 2-(4-(3-Chlorophenyl)-5-(1H-indol-3-yl)-4H-1,2,4-triazol-3-ylthio)-N-(4-(2-morpholinoacetamido)phenyl) acetamide]	220 to 222 °C		28.4 ± 1.79 µM	11 ± 1.2 µM	16.1 ± 1.4 µM	no significant change			
O=C(CSc1nnc(-c2c[nH]c3ccccc23)n1-c1ccc(Cl)cc1)Nc1ccc(NC(=O)CN2CCOCC2)cc1 [Compound U5, 2-(4-(4-Chlorophenyl)-5-(1H-indol-3-yl)-4H-1,2,4-triazol-3-ylthio)-N-(4-(2-morpholinoacetamido)phenyl)acetamide]	208 to 210 °C		45.1 ± 1.15 µM	34.4 ± 2.2 µM	47.8 ± 3.7 µM	no significant change			
COc1ccc(-n2c(SCC(=O)Nc3ccc(NC(=O)CN4CCOCC4)cc3)nnc2-c2c[nH]c3ccccc23)cc1 [Compound U2, 2-(5-(1H-Indol-3-yl)-4-(4-methoxyphenyl)-4H-1,2,4-triazol-3-ylthio)-N-(4-(2-morpholinoacetamido)phenyl)acetamide]	173 to 175 °C	1.2 ± 0.02 µM	5.22 ± 0.55 µM	0.83 ± 0.11 µM	0.73 ± 0.07 µM	limited toxicity	43 fold	111 fold	cell cycle arrest at the G1/S phase

Continued, in another order:

melting point	IC50 (Bcl-2 protein)	SMILES	IC50 (MDA-MB-231 cells)	IC50 (MCF-7 cells [1])	IC50 (A549 cells)	Inhibitory activity against HDF cells compared with the negative control [2]	Increase in early apoptosis compared with control untreated cells (MCF-7 cells [3])	Increase in late apoptosis compared with control untreated cells (MCF-7 cells [3])	Cell cycle effect (MCF-7 cells [4])
250 to 252 °C	11.1 ± 0.07 µM	Cc1ccc(-n2c(SCC(=O)Nc3ccc(NC(=O)CN4CCOCC4)cc3)nnc2-c2c[nH]c3ccccc23)cc1 [Compound U3, 2-(5-(1H-Indol-3-yl)-4-methylphenyl-4H-1,2,4-triazol-3-ylthio)-N-(4-(2-morpholinoacetamido)phenyl)acetamide]	4.07 ± 0.35 µM	1.17 ± 0.1 µM	2.98 ± 0.19 µM	no significant change			
208 to 210 °C		O=C(CSc1nnc(-c2c[nH]c3ccccc23)n1-c1ccc(F)cc1)Nc1ccc(NC(=O)CN2CCOCC2)cc1 [Compound U1, 2-(4-(4-Fluorophenyl)-5-(1H-indol-3-yl)-4H-1,2,4-triazol-3-ylthio)-N-(4-(2 morpholinoacetamido)phenyl)acetamide]	20.7 ± 0.85 µM	5.05 ± 0.8 µM	13.3 ± 0.58 µM	no significant change			
218 to 220 °C		O=C(CSc1nnc(-c2c[nH]c3ccccc23)n1-c1ccc(Cl)c(Cl)c1)Nc1ccc(NC(=O)CN2CCOCC2)cc1 [Compound U6]	79.4 ± 4.04 µM	35.5 ± 2.14 µM	66.5 ± 0.62 µM	limited toxicity			
